Target: Endothelin-1 receptor (Homo sapiens) (UniProt P25101)
Assay: Displacement of [125I]ET-1 from Endothelin A receptor

Endothelin-1 receptor (Homo sapiens), sequence (P25101 whole entry, looked up): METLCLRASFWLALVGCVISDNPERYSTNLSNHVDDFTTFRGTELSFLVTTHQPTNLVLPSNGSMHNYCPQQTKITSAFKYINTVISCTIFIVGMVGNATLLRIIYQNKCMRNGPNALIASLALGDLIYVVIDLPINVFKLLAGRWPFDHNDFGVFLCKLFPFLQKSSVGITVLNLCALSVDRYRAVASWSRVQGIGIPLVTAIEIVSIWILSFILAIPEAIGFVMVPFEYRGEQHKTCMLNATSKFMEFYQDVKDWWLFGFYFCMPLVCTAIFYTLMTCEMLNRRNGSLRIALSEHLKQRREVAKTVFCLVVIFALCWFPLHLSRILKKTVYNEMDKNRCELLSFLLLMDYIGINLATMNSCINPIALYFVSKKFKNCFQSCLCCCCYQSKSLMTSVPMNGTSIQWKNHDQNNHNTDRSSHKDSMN

IC50: 0.02 nM
SMILES: Cc1cc(C)c(NC(=O)c2sccc2S(=O)(=O)Nc2onc(C)c2Cl)c(C(C)N=O)c1 (stereo unspecified) [3-(4-Chloro-3-methyl-isoxazol-5-ylsulfamoyl)-thiophene-2-carboxylic acid [2-(1-hydroxyimino-ethyl)-4,6-dimethyl-phenyl]-amide]

From BindingDB's records for doi:10.1021/jm030528p (Encysive Pharmaceuticals, 2004)
